Patent publication US20110071142A1, “IDENTIFICATION AND USE OF SMALL MOLECULES TO MODULATE TRANSCRIPTION FACTOR FUNCTION AND TO TREAT TRANSCRIPTION FACTOR ASSOCIATED DISEASES” (BETH ISRAEL DEACONESS MEDICAL CENTER, priority 2007, published 2011)
Where two headings read alike, the source gives them in different places.

Tests used:
Ets-1-DNA interaction = biological target: T1, Ets-1-DNA interaction (Homo sapiens, UniProt P14921); test: Electrophoretic mobility shift assay (EMSA) of Ets-1 DNA binding
T1 construct: host or cells: cell-free in vitro translation, rabbit reticulocyte lysate
T1 sequence (P14921 1-441): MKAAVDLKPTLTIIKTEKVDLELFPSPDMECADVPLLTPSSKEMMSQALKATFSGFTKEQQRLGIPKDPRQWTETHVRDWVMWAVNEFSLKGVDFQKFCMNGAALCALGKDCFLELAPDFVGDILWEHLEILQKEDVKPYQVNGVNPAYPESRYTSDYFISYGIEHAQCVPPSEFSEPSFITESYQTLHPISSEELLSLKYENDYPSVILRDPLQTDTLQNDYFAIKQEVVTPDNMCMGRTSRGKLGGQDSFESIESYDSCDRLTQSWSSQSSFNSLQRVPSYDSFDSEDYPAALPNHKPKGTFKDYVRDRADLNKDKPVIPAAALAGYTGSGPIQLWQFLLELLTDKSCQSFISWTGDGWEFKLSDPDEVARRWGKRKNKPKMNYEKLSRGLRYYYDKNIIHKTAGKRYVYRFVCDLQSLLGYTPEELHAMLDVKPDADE
Method: Initially it is determined whether the identified small molecule “hits” interfere with Ets-1-DNA binding using electrophoretic mobility shift assays (EMSAs). These are performed as described previously (142). In brief, in vitro translated Ets-1 protein is generated using a rabbit reticulolysate system (Promega) and a mammalian expression plasmid encoding the Ets-1 protein. 1 μl of the in vitro translation reaction and 0.1-0.2
ng [32P]dATP-labeled double-stranded oligonucleotide probe (5,000-10,000 cpm) will be run on 4% polyacrylamide gels containing 0.5×TBE buffer. […] The small molecules identified are initially evaluated at a concentration of 1 mM, which is the concentration used in high throughput fraganomic approaches for evaluating the interaction of weak-binding small molecules (143, 144). Those small molecules that inhibit the Ets-1-DNA interaction will be re-evaluated over a concentration range of 10 μM-1 mM. Solutions containing DMSO alone will be used as a vehicle control. To ensure the small molecule is specifically targeting the Ets-1-DNA interface and not interacting non-specifically with the DNA, a non-specific promoter is included as well as a control small molecule that is not selected as a “hit” by our HTD screen. To further confirm the molecular specificity of these small molecules for targeting Ets-1, EMSAs will be performed with other members of the ETS family. Ethidium bromide displacement assays could also be used to confirm that the small molecules are not nonspecifically targeting the DNA sequence (145).

Ets-1 transactivation = test: Reporter gene transactivation assays (transient transfection); assay type: cell-based, Human
Method: Several downstream targets of Ets-1 including the MCP-1 gene, PAI1, and Flt-1 (49, 142) have been identified. To further define the specificity of small molecules that inhibit DNA binding of Ets-1 in EMSAs, their ability is evaluated with regard to inhibiting transactivation of the MCP-1, PAI-1, and Flt-1 promoters by Ets-1, without affecting the basal activity of the promoter. As controls, the endothelial-specific promoters Tie1 and Tie2 are used, that have been previously shown as targets of the Ets factors NERF2 and Elf-1, but not Ets-1 or Ets-2 (142, 146). The promoters of these genes have previously been subcloned into the PGL2 luciferase reporter (Promega). Similarly, we have previously subcloned the
cDNAs encoding the ETS factors Ets-1, Ets-2, NERF2, and Elf-1 into the PCI mammalian expression plasmid.
Human embryonic kidney cells (HEK 293) are cultured as previously described (147). HEK 293 cells are kidney epithelial cells that express low basal levels of Ets-1, and are easily transfected. Cotransfections of 2×10^5 HEK 293 cells are carried out with 0.3 μg of the reporter gene construct DNA and 0.15 μg of the mammalian expression vector encoding the selected Ets factors using 4 μl LipofectAMINE (Invitrogen, San Diego, Calif.) as described (148). […]

[1] = system: Ets-1 mediated gene expression; test: Ets-1 mediated gene expression in HEK293 cells; assay type: cell-based, Human
Ets-1 expression = test: Real time PCR of IL-1 induced Ets-1 expression in HUVECs; assay type: cell-based, Human; details: 10 μM, preincubated 1 h, IL-1 10 ng/ml, 2 hr
Method: (§1) SYBR Green I-based real-time PCR is carried out on an Opticon Monitor (MJ Research, Inc, Waltham, Mass.). All PCR mixtures contain PCR buffer [final concentration: 10 mM Tris-HCl (pH9.0), 50 mM KCl, 2 mM MgCl2 and 0.1% TritonX-100], 250 μM deoxy-NTP (Roche), 0.5 μM of each PCR primer, 0.5×SYBR Green I,
(§2) 5% DMSO, and 1U Taq DNA polymerase (Promega, Madison, Wis.) with 2 μl cDNA in a 25 μl final volume of reaction mix. Then, the fluorescence signal is measured immediately following incubation at 78° C. for 5 s that follows each extension step, which eliminates possible primer dimer detection. At the end of PCR cycles, a melting curve will be generated to identify specificity of the PCR product. For each run, serial dilutions of human GAPDH plasmids are used as standards for quantitative measurement of the amount of amplified cDNA. For normalization of each sample, GAPDH primers are used to measure the GAPDH cDNA levels. Cytotoxicity Evaluation of “hit” Compounds Using MTS Assay
(§3) Total RNA was isolated for real time PCR to measure Ets-1 expression levels as well as the IL-1 inducible, Ets-1
(§4) dependent MCP-1 expression levels, following stimulation for 1, 2, 4, 6 and 12 hours. IL-1 induced Ets-1 expression ˜4 fold at 2 hr, however compound #28 reduced Ets-1 induction by greater than 50% during this time frame. […]

MCP-1 expression = test: Real time PCR of IL-1 inducible, Ets-1 dependent MCP-1 expression in HUVECs; assay type: cell-based, Human; details: 10 μM, preincubated 1 h, IL-1 10 ng/ml
Method: as §1, §2, §3, §4

Q: For `Nc1ccccc1SC(C[N+](=O)[O-])c1ccc2c(c1)OCO2` (stereo not shown) [Compound 28, 2-{[1-(1,3-benzodioxol-5-yl)-2-nitroethyl]thio}aniline], which “inhibition of Ets-1 DNA binding” value (Ets-1-DNA interaction) is on record?
A: inhibits Ets-1 DNA binding

Q: And the “inhibits the Ets-1-DNA interaction, concentration range as estimated using EMSAs” value (Ets-1-DNA interaction)?
A: low uM range

Q: And the “inhibition of Ets-1 DNA binding” value (Ets-1-DNA interaction; FIG. 8 legend: HUVECs preincubated with 10 μM)?
A: inhibits Ets-1 DNA binding

Q: And the “inhibition of transactivation assays” value (Ets-1 transactivation)?
A: 8 fold

Q: What about the “decrease of Ets-1 mediated gene expression” value [1] of the same compound?
A: 50-60%

Q: And the “reduction of IL-1 induced Ets-1 induction” value (Ets-1 expression)?
A: greater than 50%

Q: What about the “reduction of IL-1 induced MCP-1 expression” value (MCP-1 expression) of the same compound?
A: greater than 40%
